Experimental data: publication PMC9574929, “Development of Hydrogen Sulfide-Releasing Carbonic Anhydrases IX- and XII-Selective Inhibitors with Enhanced Antihyperalgesic Action in a Rat Model of Arthritis” (Journal of Medicinal Chemistry, 2022)
Several values for one entry are separate records, joined by “and”; a condition that tells them apart may be missing. Identical values can stand only once. Like-named read-outs stand apart in the source and are kept apart here.

Key:
hCA IX [1] = biological target: T1, hCA IX (Homo sapiens, UniProt Q16790); set-up: made in house; method as in Bonardi et al. [29,30]; details: stopped-flow CO2 hydrase assay; Table S1 footnote b; ref Bonardi et al. [29,30]; cited from earlier work
hCA II [2] = biological target: T2, hCA II (Homo sapiens, UniProt P00918); assay: Stopped-flow CO2 hydrase assay, hCA II; details: for SI CA I/II: selectivity index, ratio of KIs
Description: (§3) The uncatalyzed rates were determined in the same manner and subtracted from the total observed rates. Stock solutions of inhibitor (0.1 mM) were prepared in distilled-deionized water and dilutions up to 0.01 nM were done thereafter with the assay buffer. […] The inhibition constants were obtained by nonlinear least-squares methods using PRISM 3 and the Cheng–Prusoff equation, as reported earlier,[39] and represent the mean from at least three different determinations.

hCA XII [3] = biological target: T3, hCA XII (Homo sapiens, UniProt O43570); assay: Stopped-flow CO2 hydrase assay, hCA XII; details: for SI CA I/XII / SI CA II/XII: selectivity index, ratio of KIs
Description: as §3

hCA IV [4] = biological target: T4, hCA IV (Homo sapiens, UniProt P22748); assay: Stopped-flow CO2 hydrase assay, hCA IV; details: for SI CA I/IV / SI CA II/IV: selectivity index, ratio of KIs
Description: as §3

hCA IX [5] = biological target: T1, hCA IX; assay: Stopped-flow CO2 hydrase assay, hCA IX; details: selectivity index, ratio of KIs
Description: as §3

[6] = test system: rat model of arthritis induced by the intra-articular injection of complete Freund's adjuvant (CFA); assay: Paw pressure test, CFA-induced arthritis; format: in vivo
Description: (§1) Articular damage was induced by injection of Complete Freund’s Adjuvant (CFA; Sigma-Aldrich, St Louis, MO, USA), containing 1 mg/mL of heat-killed and dried Mycobacterium tuberculosis in paraffin oil and mannide monooleate, into the tibiotarsal joint.[50] Briefly, the rats were lightly anesthetized with 2% isoflurane, the left leg skin was sterilized with 75% ethyl alcohol, and the lateral malleolus was located by palpation. A 28-gauge needle was then inserted vertically to penetrate the skin and turned distally for insertion into the articular cavity at the gap between the tibiofibular and tarsal bone until a distinct loss of resistance was felt. A volume of 50 μL of CFA was then injected (day 0). Control rats received 50 μL of saline solution (day 0) in the tibiotarsal joint.
(§2) The hybrid derivatives 26, 29, 30, and 31 (1, 10, and 30 mg/kg) were suspended in a 1% solution of carboxymethylcellulose (CMC) sodium salt and acutely per os administered starting from day 14 after CFA i.a. injection, when arthritis was well established. The H2S releaser 3 and CAI 15 were also administered alone or in coadministration at the equimolar dose of compound 30 30 mg/kg (13.23 and 17.71 mg/kg, respectively). The antihypersensitivity effects were evaluated over time by the Paw pressure and Incapacitance tests.
The nociceptive threshold of rats was determined with an analgesimeter (Ugo Basile, Varese, Italy), according to the method described by Leighton et al.[51] and Maresca et al.,[52] (doi: 10.1111/jphp.12828). Briefly, a constantly increasing pressure was applied to a small area of the dorsal surface of the hind paw using a blunt conical probe by a mechanical device. Mechanical pressure was increased until vocalization or a withdrawal reflex occurred while rats were lightly restrained. Vocalization or withdrawal reflex thresholds were expressed in grams. […]

[7] = test system: rat model of arthritis induced by the intra-articular injection of complete Freund's adjuvant (CFA); assay: Incapacitance test, CFA-induced arthritis; format: in vivo
Description: as §1, §2
Weight-bearing changes were measured using an incapacitance apparatus (Linton Instrumentation, Norfolk, U.K.) to detect changes in postural equilibrium after a hind limb injury.[53],[54] Rats were trained to stand on their hind paws in a box with an inclined plane (65° from horizontal). This box was placed above the incapacitance apparatus. This allowed us to independently measure the weight that the animal applied on each hind limb. The value reported for each animal is the mean of five consecutive measurements. In the absence of hind limb injury, rats applied an equal weight on both hind limbs, indicating postural equilibrium, whereas an unequal distribution of weight on the hind limbs indicated a monolateral decreased pain threshold. Data are expressed as the difference between the weight applied to the limb contralateral to the injury and the weight applied to the ipsilateral limb (Δ weight).

hCA I [8] = biological target: T5, hCA I (Homo sapiens, UniProt P00915); assay: Stopped-flow CO2 hydrase assay, hCA I
Description: as §3

hCA I [9] = biological target: T5, hCA I; set-up: made in house; method as in Bonardi et al. [29,30]; details: stopped-flow CO2 hydrase assay; Table S1 footnote b; ref Bonardi et al. [29,30]; cited from earlier work
hCA II [10] = biological target: T2, hCA II; set-up: made in house; method as in Bonardi et al. [29,30]; details: stopped-flow CO2 hydrase assay; Table S1 footnote b; ref Bonardi et al. [29,30]; cited from earlier work
hCA IV [11] = biological target: T4, hCA IV; set-up: made in house; method as in Bonardi et al. [29,30]; details: stopped-flow CO2 hydrase assay; Table S1 footnote b; ref Bonardi et al. [29,30]; cited from earlier work
hCA XII [12] = biological target: T3, hCA XII; set-up: made in house; method as in Bonardi et al. [29,30]; details: stopped-flow CO2 hydrase assay; Table S1 footnote b; ref Bonardi et al. [29,30]; cited from earlier work
rats = assay: Toxicity and Irwin test; format: in vivo, rat; set-up: key to Irwin test: Spontaneous activity / Irwin test: Straightening reflex / Irwin test: Hypo-hyperthermia / Irwin test: Cleaning / Irwin test: Curiosity / Irwin test: Reactivity / Irwin test: Convulsions: observer's semiquantitative score (0 to +4, −4 to 0, or −4 to +4); details: 30 mg/kg
Description: Toxicity was evaluated after a single acute administration of 26, 29, 30, and 31 at 30 mg/kg. […] For the Irwin test, each rat was individually placed in a transparent cage (26 × 41 cm), and 26 neurobehavioral or physiological parameters were systematically assessed according to Irwin (1968)[55] and already reported by Berrino and colleagues in similar studies.[30] Behavioral, autonomic, and neurological manifestations produced by compound administration in rats were evaluated: motor displacement, motor reflexes, stereotypies, grooming, reaction to painful or environmental stimuli (analgesia and irritability), startle response, secretions, excretions, respiratory movements, skin color and temperature, piloerection, exophthalmos, eyelid and corneal reflexes, muscle tone, ataxia, tremors, head twitches, jumps, convulsions, Straub tail, and other signs or symptoms. For postural reflexes (righting reflex) and other signs such as piloerection, exophthalmia (exaggerated protrusion of the eyeball), ataxia, tremors, and Straub tail, only presence or absence was recorded. Skin color was evaluated qualitatively (pale, red, or purple); other signs were evaluated semiquantitatively, according to the observer’s personal scale (0 to +4, −4 to 0, or −4 to +4). The terms sedation and excitation express the final interpretation of a group of signs: reduced motor activity, reduced startle response, eyelid ptosis, and reduced response to manual manipulation, for the former; and increased motor activity, increased startle response, increased response to manual manipulation, and exophthalmia, for the latter. Hyperactivity includes running, jumping, and attempting to escape from the container. Trained observers were not informed about the specific treatment of each animal group carried out in this test.

[13] = per os, 3 13.23 mg/kg, 15 17.71 mg/kg
[14] = S.N.C. excitement, limits 0 - 4

T3 sequence (O43570 25-354): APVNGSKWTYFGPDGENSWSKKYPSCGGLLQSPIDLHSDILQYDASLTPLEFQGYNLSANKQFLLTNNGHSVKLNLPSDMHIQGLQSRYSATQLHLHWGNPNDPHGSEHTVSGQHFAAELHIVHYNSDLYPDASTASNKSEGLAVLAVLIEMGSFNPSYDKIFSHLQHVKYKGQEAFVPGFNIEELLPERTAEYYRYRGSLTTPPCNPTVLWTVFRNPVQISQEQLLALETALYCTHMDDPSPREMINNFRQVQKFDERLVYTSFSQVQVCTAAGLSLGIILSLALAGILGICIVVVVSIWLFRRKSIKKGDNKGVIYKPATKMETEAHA
T4 sequence (P22748 19-312): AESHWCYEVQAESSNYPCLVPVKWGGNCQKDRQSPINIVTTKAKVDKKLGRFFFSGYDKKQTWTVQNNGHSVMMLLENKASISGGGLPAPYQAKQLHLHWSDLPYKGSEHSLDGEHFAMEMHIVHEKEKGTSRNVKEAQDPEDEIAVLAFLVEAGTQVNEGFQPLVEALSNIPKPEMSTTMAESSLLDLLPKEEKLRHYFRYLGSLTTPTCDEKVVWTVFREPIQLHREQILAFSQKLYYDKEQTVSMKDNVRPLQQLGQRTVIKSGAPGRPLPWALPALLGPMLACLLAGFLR
T5 sequence (P00915 whole entry): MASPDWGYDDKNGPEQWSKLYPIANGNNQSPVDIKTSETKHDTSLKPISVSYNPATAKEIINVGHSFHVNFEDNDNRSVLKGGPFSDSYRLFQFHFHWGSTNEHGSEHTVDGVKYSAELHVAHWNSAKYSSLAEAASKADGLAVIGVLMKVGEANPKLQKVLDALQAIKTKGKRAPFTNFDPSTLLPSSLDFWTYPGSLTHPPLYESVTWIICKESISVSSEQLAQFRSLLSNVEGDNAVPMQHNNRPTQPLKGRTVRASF

SMILES: NS(=O)(=O)c1ccc(CCNCc2ccccc2)cc1 [Compound 4, 4-(2-(Benzylamino)ethyl)benzenesulfonamide]
- Ki (hCA IX [1]): 78.1 nM

SMILES: NS(=O)(=O)c1ccc(CCNCc2ccc(F)cc2)cc1 [Compound 5, 4-(2-((4-Fluorobenzyl)amino)ethyl)benzenesulfonamide]
- SI CA I/II (hCA II [2]): 1.4
- SI CA I/XII (hCA XII [3]): 1.9
- SI CA II/XII (hCA XII [3]): 1.3
- SI CA I/IV (hCA IV [4]): 0.09
- SI CA II/IV (hCA IV [4]): 0.06
- SI CA I/IX (hCA IX [5]): 2.0
- SI CA II/IX (hCA IX [5]): 1.4
- Ki (hCA IX [1]): 56.5 nM

SMILES: NS(=O)(=O)c1ccc(CCNCc2ccc([N+](=O)[O-])cc2)cc1 [Compound 10, 4-(2-((4-Nitrobenzyl)amino)ethyl)benzenesulfonamide]
- SI CA I/II (hCA II [2]): 1.9
- SI CA I/XII (hCA XII [3]): 2.9
- SI CA II/XII (hCA XII [3]): 1.6
- SI CA I/IV (hCA IV [4]): 0.1
- SI CA II/IV (hCA IV [4]): 0.07
- SI CA I/IX (hCA IX [5]): 2.5
- SI CA II/IX (hCA IX [5]): 1.4
- Ki (hCA IX [1]): 89.2 nM

SMILES: NS(=O)(=O)c1ccc(CCNCc2cccc3ccccc23)cc1 [Compound 15, 4-(2-((Naphthalen-1-ylmethyl)amino)ethyl)benzenesulfonamide]
- antihyperalgesic effect, Paw pressure test, dose equimolar to 30 30 mg/kg [6, 13]: very weak antihyperalgesic action
- Ki (hCA II [2]): 178 nM
- SI CA I/II (hCA II [2]): 1.5
- antihyperalgesic effect, Incapacitance test, dose equimolar to 30 30 mg/kg [7, 13]: absence of effects detected in vivo
- Ki (hCA XII [3]): 54.7 nM
- SI CA I/XII (hCA XII [3]): 4.8
- SI CA II/XII (hCA XII [3]): 3.2
- Ki (hCA I [8]): 261 nM
- Ki (hCA IV [4]): 3010 nM
- SI CA II/IV (hCA IV [4]): 0.06
- SI CA I/IX (hCA IX [5]): 5.8
- SI CA II/IX (hCA IX [5]): 4.0

SMILES: NS(=O)(=O)c1ccc(CCNCCc2ccccc2)cc1 [Compound 17, 4-(2-(Phenethylamino)ethyl)benzenesulfonamide]
- SI CA I/II (hCA II [2]): 3.1
- SI CA I/XII (hCA XII [3]): 2.6
- SI CA II/XII (hCA XII [3]): 0.9
- SI CA II/IV (hCA IV [4]): 0.02
- SI CA I/IX (hCA IX [5]): 2.7
- Ki (hCA IX [1]): 102 nM

SMILES: N#CCCNCCc1ccc(S(N)(=O)=O)cc1 [Compound 18, 4-(2-((2-Cyanoethyl)amino)ethyl)benzenesulfonamide]
- Ki (hCA I [9]): 105 nM
- SI CA I/II (hCA II [2]): 0.7
- SI CA I/XII (hCA XII [3]): 0.9
- SI CA II/XII (hCA XII [3]): 1.4
- Ki (hCA II [10]): 154 nM
- SI CA I/IV (hCA IV [4]): 0.01
- SI CA II/IV (hCA IV [4]): 0.02
- SI CA I/IX (hCA IX [5]): 1.0
- SI CA II/IX (hCA IX [5]): 1.5
- Ki (hCA IV [11]): 5550 nM
- Ki (hCA IX [1]): 105 nM
- Ki (hCA XII [12]): 113 nM

SMILES: NS(=O)(=O)c1ccc(CCN(Cc2csc3ccccc23)C(=O)c2ccc(-c3cssc3=S)cc2)cc1 [Compound 31, N-(Benzo[b]thiophen-3-ylmethyl)-N-(4-sulfamoylphenethyl)-4-(3-thioxo-3H-1,2-dithiol-4-yl)benzamide]
- Irwin test: Cyanosis (rats; Autonomic signes, limits 0 - 4): 0
- Irwin test: Exolphthalmos (rats; Autonomic signes, limits 0 - 4): 0
- Irwin test: Flush (rats; Autonomic signes, limits 0 - 4): 0
- Irwin test: Lacrimation (rats; Autonomic signes, limits 0 - 4): 0
- Irwin test: Pallor (rats; Autonomic signes, limits 0 - 4): 0
- Irwin test: Piloerection (rats; Autonomic signes, limits 0 - 4): 0
- Irwin test: Salivation (rats; Autonomic signes, limits 0 - 4): 0
- Irwin test: Writhing (rats; Autonomic signes, limits 0 - 4): 0
- Irwin test: Palpebral opening (rats; Autonomic signes, limits 4 - 0): 4
- Irwin test: Hypo-hyperthermia (rats; Autonomic signes, limits -4/+4): 0
- Irwin test: Passivity (rats; Behaviour, limits 0 - 4): 0
- Irwin test: Vocalization (rats; Behaviour, limits 0 - 4): 0
- Irwin test: Cleaning (rats; Behaviour, limits 4 - 0): 0
- Irwin test: Curiosity (rats; Behaviour, limits 4 - 0): 4
- Irwin test: Reactivity (rats; Behaviour, limits 4 - 0): 4
- Irwin test: Spontaneous activity (rats; Behaviour, limits 4 - 0): 4
- Irwin test: Ataxia (rats; Movement, limits 0 - 4): 0
- Irwin test: Stereotipies (rats; Movement, limits 0 - 4): 0
- Irwin test: Straightening reflex (rats; Movement, limits 4 - 0): 4
- Irwin test: Physical strenght (rats; Muscolar tone, limits 4 – 0): 4
- Irwin test: Palpebral reflex (rats; Reflexes, limits 4 - 0): 4
- Irwin test: Straub tail (rats; [14]): 0
- Irwin test: Tremors (rats; [14]): 0
- Irwin test: Convulsions (rats; S.N.C. excitement, limits 4 - 0): 0
- Irwin test: Delayed death (48 h) (rats; Toxicity, limits 0 - 4): 0
- Irwin test: Immediate death (rats; Toxicity, limits 0 - 4): 0
- antihyperalgesic effect, Paw pressure test, 1 mg/kg ([6]; 1 mg/kg per os): ineffective
- weight tolerated on the ipsilateral paw, Paw pressure test, 10 and 30 mg/kg ([6]; 10 and 30 mg/kg per os, from 15 min up to 45 min after treatment, vs CFA-treated animals): significantly increased the weight tolerated
- reduction of spontaneous pain, Incapacitance test ([7]; single per os, 1 to 30 mg/kg, day 14 after CFA): reduced spontaneous pain in a dose-dependent manner
- SI CA I/XII (hCA XII [3]): >1204
- SI CA II/XII (hCA XII [3]): 299
- SI CA I/IV (hCA IV [4]): >208
- SI CA II/IV (hCA IV [4]): 52 and 51.7
- SI CA I/IX (hCA IX [5]): >4167
